Several values for one entry are separate records, joined by “and”; a condition that tells them apart may be missing. Equal entries are not always repeated. Where two headings read alike, the source gives them in different places.
Tests used:
[1] = tested on: RIPK2; assay: In vivo RIPK2 degradation in rat (PBMCs isolated from blood, Western blot); conditions: for RIPK2: fig 5e, individual rats 6-10, time 0 = 100; for RIPK2 (time 0 = 100): rats 1-4, fig 5c
Description: (§1) Rat PK/PD studies: On arrival, all rats were housed in a plastic solid bottom cage in groups of 2–3 with access to food and water ad libitum and under a 12 h light–dark cycle. Male CD or Wistar Han rats (7–9 weeks old, Charles River UK Ltd.) were randomly allocated to treatment groups upon arrival. Female CD rats (7–8 weeks old on arrival, Charles River Ltd.) were placed into groups using a randomization schedule based on body weight prior to the study start. All animals were acclimatized for a minimum of one week prior to the experiment commencing.
Subcutaneous PROTAC solution formulations were prepared on the day of dosing as outlined below and filtered through a 0.22 µm Millex PVDF filter (Millipore) prior to PROTAC administration. PROTAC 4 was dissolved in saline with the pH adjusted to 5.0 with sodium hydroxide (1 M). […].
(§2) Ex vivo stimulation of rat blood with L18-MDP for PD: PPD blood samples taken prior to PROTAC administration or at fixed timepoints post PROTAC administration through the course of the study, were treated ex vivo with 100 ng/mL L18-MDP (Invivogen) or vehicle (0.1% DMSO) and incubated for 4 h. Following centrifugation, plasma was collected for cytokines analysis as detailed in cytokines assay section. Additionally, RIPK2 levels were determined in PBMCs isolated from blood and where collected, in sampled colon tissue as described in the text.
Blood was mixed with optiPREP (Sigma) and following centrifugation at 1300 × g the PBMCs layer was collected. For in vivo studies, RIPK2 levels were determined immediately via immunoblotting, whereas for in vitro studies PBMCs were treated as detailed in the in vitro treatment section.
(§3) Statistics and reproducibility: All data were represented as percentage of the control sample: DMSO treated cells for the in vitro assays and the pre-dose or vehicle sample for the in vivo experiments.
For in vivo studies, RIPK2:tubulin ratios and cytokine levels from each individual experiment were analysed either using a One-way ANOVA with Dunnet’s post-test or a two way ANOVA using GraphPad Prism 5.0.4 to determine statistical significance with 95% confidence levels.

[2] = tested on: L18-MDP-induced TNFα release; assay: L18-MDP-induced cytokine release (TNFα, IL1β, IL-6, IL-8, IL-10) in human PBMCs; format: cell-based; conditions: Homo sapiens, PBMC
Description: PBMCs were isolated from leukodepletion filter from platelet aphaeresis supplied by National Health System Blood and Transplant—NHSBT Apheresed at NHBST.
Before treatment with compound or vehicle, THP1 cells, human and rat PBMCs were counted using Vi-Cell cell counter (Invitrogen) and adjusted to a final cell density of […] using complete growth medium. Cells or whole blood were treated with vehicle (0.1% DMSO) or fixed concentrations of compound up to 1 μM in half log unit increments and incubated for the time period indicated in the figure.
Where the assessment of cytokines was performed, L18-MDP was added to the cell culture media (1 μg/ml) or to the rat blood samples (100 ng/ml) and samples were incubated for up to 4 h. […] Samples were them spun down at 1000 g and the cell culture supernatant, plasma or serum were collected for cytokines assessment, while cell pellets were used for RIPK2 and/or cIAP1, cIAP2, and XIAP levels analysis via immunoblotting.
(§4) Cytokine measurement assay: Cytokine levels were measured in rat plasma or rat PBMCs cell culture supernatants using rat V-Plex TNFα, in human plasma or human PBMCs cell culture supernatants with either TNFα tissue culture or 7-plex kit. Rat serum and tissues samples from the in vivo L18-MDP acute inflammation model were analyzed using the rat TNFα, Il-6 and IL-8 U-Plex kits. All kits provided by Meso Scale Discovery (MSD). Levels of cytokines spontaneously released from human colon biopsies cell culture supernatants were measured using Human IL-1 beta/IL-1F2 DuoSet ELISA (Bio-techne), Human IL-6 ELISA (Immunotools) and Human TNF-alpha DuoSet ELISA (Bio-techne). All samples were processed accordingly to the manufacturer’s instructions. The MSD plates were analyzed using the MSD sector imager 6000 plate reader and cytokines concentration (pg/ml) was obtained by using the MSD DISCOVERY WORKBENCH software version 4.0.12.1
In vitro experimental data were analyzed using a 4-parameter logistic equation in GraphPad Prism 5.0.4. to generate an estimate of the half-maximal concentration and maximal degradation, DC50 and Dmax value respectively, for concentration-degradation relationships. Cytokine levels were analyzed in a similar manner to yield IC50 and Imax values. […] Where analysis to a sigmoidal relationship was not possible, the data points are shown as mean ± s.e.m.

[3] = tested on: L18-MDP-stimulated TNFα release; assay: TNFα after ex vivo L18-MDP stimulation of blood from dosed rats; format: in vivo, rat; design: key to TNFα after ex vivo L18-MDP stimulation: % of pre-dose or vehicle sample; conditions: for TNFα after ex vivo L18-MDP stimulation: fig 5b; for TNFa: fig 5e, individual rats 6-10, time 0 = 100; for TNFα inhibition (ex vivo L18-MDP): 0.05 mg/kg/day QD SC
Description: as §1, with “Male” for “Rat PK/PD studies: On arrival, all rats were housed in a plastic solid bottom cage in groups of 2–3 with access to food and water ad libitum and under a 12 h light–dark cycle. Male”
Subcutaneous PROTAC solution formulations were prepared on the day of dosing as outlined below and filtered through a 0.22 µm Millex PVDF filter (Millipore) prior to PROTAC administration. PROTAC 4 was dissolved in saline with the pH adjusted to 5.0 with sodium hydroxide (1 M).
as §2, §4, §3

CN[C@@H](C)C(=O)N[C@H](C(=O)N1C[C@@H](NC(=O)c2cnc(N3CCN(CCCOc4cc5ncnc(Nc6n[nH]c(C)c6C)c5cc4S(=O)(=O)C(C)(C)C)CC3)cn2)C[C@H]1C(=O)Nc1c(F)cccc1F)C(C)(C)C [PROTAC 6]
RIPK2 level (time 0 = 100), unlabelled cell under rat 8 ([1]; 0.005 mg/kg, equals the mean of the four other rats at 24 h, fig 5a): 92.1904 | RIPK2 level (time 0 = 100) ([1]; 0.005 mg/kg, time 24 h, rats 6-10, fig 5a): 71.58 and 92.75 and 127.25 and 77.18 | RIPK2 level (time 0 = 100) ([1]; 0.005 mg/kg, time 48 h, rats 6-10, fig 5a): 107.66 and 189.11 and 139.36 and 104.71 and 114.34 | RIPK2 level (time 0 = 100) ([1]; 0.05 mg/kg, time 6 h, rats 11-15, fig 5a): 60.71 and 118.09 and 89.04 and 78.70 and 85.87 | RIPK2 level (time 0 = 100) ([1]; 0.05 mg/kg, time 24 h, rats 11-15, fig 5a): 70.75 and 59.91 and 86.01 and 67.12 and 70.61 | RIPK2 level (time 0 = 100) ([1]; 0.5 mg/kg, time 72 h, rats 16-20, fig 5a): 25.93 and 26.14 and 14.54 and 23.73 and 19.84 | RIPK2 ([1]; time 24 h): 41.32 and 46.91 and 38.86 and 44.83 and 39.94 | RIPK2 ([1]; time 72 h): 55.66 and 38.00 and 35.30 and 41.29 and 38.74 | RIPK2 degradation ([1]; rat, 0.05 mg/kg/day QD SC, last time point): > 70% | RIPK2 degradation ([1]; rat, 0.5 mg/kg/day QD SC, 24 h): ~ 70% | RIPK2 degradation ([1]; rat, 0.5 mg/kg/day QD SC, last time point after third dose): > 90% | effect on RIPK2 levels, in words ([1]; rat, single 0.005 mg/kg SC): no significant effect | effect on RIPK2 protein levels, in words ([1]; rat, single 0.05 mg/kg SC): did not have a statistically significant effect | RIPK2 degradation ([1]; rat, single 0.5 mg/kg SC, 6 h post-dose): 53 ± 9% | RIPK2 degradation ([1]; rat, single 0.5 mg/kg SC, 48 h): 78 ± 5% | RIPK2 (time 0 = 100) ([1]; time 6 h): 85.25 and 86.14 and 86.72 and 88.07 | RIPK2 (time 0 = 100) ([1]; time 24 h): 71.45 and 57.80 and 52.77 and 57.74 | RIPK2 (time 0 = 100) ([1]; time 30 h): 42.20 and 43.44 and 40.14 and 48.21 | RIPK2 (time 0 = 100) ([1]; time 48 h): 32.57 and 27.38 and 24.98 and 36.77 | RIPK2 (time 0 = 100) ([1]; time 54 h): 24.47 and 24.71 and 23.45 and 32.20 | IC50 ([2]; 6 h, read-out: hPBMC MDP pIC50 ± SEM, 6 h (n = 3) (converted)): 0.501 nM | IC50 ([2]; read-out: pIC50 IL1β release following L18-MDP-stimulation (converted)): < 1.58 nM | IC50 ([2]; read-out: pIC50 IL-6 release following L18-MDP-stimulation (converted)): < 1.58 nM | IC50 ([2]; read-out: pIC50 IL-10 release following L18-MDP-stimulation (converted)): < 1.58 nM | IC50 ([2]; read-out: pIC50 TNFα release following L18-MDP-stimulation (converted)): < 1.58 nM | TNFα after ex vivo L18-MDP stimulation ([3]; 0.005 mg/kg, time 6 h, rats 6-10): 103.74 and 107.75 and 89.01 and 67.06 and 122.94 | TNFα after ex vivo L18-MDP stimulation ([3]; 0.005 mg/kg, time 96 h, rats 6-10): 59.51 and 62.83 and 97.91 and 70.36 and 61.76 | TNFα after ex vivo L18-MDP stimulation ([3]; 0.05 mg/kg, time 48 h, rats 11-15): 25.93 and 24.59 and 27.99 and 42.15 and 37.98 | TNFa ([3]; time 24 h): 0.86 and 0.61 and 0.92 and 2.90 and 3.38 | TNFa ([3]; time 72 h): 13.57 and 6.85 and 8.80 and 22.86 | cumulative PD effect, in words ([3]; rat, 0.05 mg/kg Q3D SC): failed to show this cumulative PD effect | TNFα inhibition (ex vivo L18-MDP) ([3]; rat, 6 h post-dose): ~ 60% | TNFα inhibition (ex vivo L18-MDP) ([3]; rat, 24 h post-dose): ~ 60% | TNFα inhibition (ex vivo L18-MDP) ([3]; rat, 54 h (6 h after third dose)): > 90% | inhibition of TNFα release (ex vivo L18-MDP) ([3]; rat, 0.5 mg/kg/day QD SC, 24 h): > 90% | effect on TNFα levels, in words ([3]; rat, single 0.005 mg/kg SC): no significant effect | inhibition of TNFα release upon ex vivo L18-MDP challenge ([3]; rat, single 0.05 mg/kg SC, first 48 h): > 60% | inhibition of TNFα levels upon ex vivo whole blood L18-MDP challenge ([3]; rat, single 0.5 mg/kg SC, over the duration of the study (5 days)): > 70% | TNFa (time 0 = 100) ([3]; time 72 h, rats 11-15, fig 5d): 91.60 and 114.81 and 76.37 and 83.72

Source: article PMC7083851, “Extended pharmacodynamic responses observed upon PROTAC-mediated degradation of RIPK2” (Communications Biology, 2020)
